According to the Deep4Chem optical property database:
Several values for one entry are separate records, joined by “and”; a condition that tells them apart may be missing. Equal entries are not always repeated.

Experiment: photoluminescence quantum yield (fraction); solvent given as SMILES

For `CCCc1ccc(C#Cc2cc(C#Cc3ccc(CCC)cc3)c3ccc4c(C#Cc5ccc(N(C)C)cc5)cc(C#Cc5ccc(CCC)cc5)c5ccc2c3c54)cc1`, the photoluminescence quantum yield (in ClCCl) was 0.44.
With `COC(=O)/C(C#N)=c1\s/c(=c2/s/c(=C(/C#N)C(=O)OC)c3cc(-c4ccc5c(c4)C(C)(C)c4ccccc4-5)sc23)c2sc(-c3ccc4c(c3)C(C)(C)c3ccccc3-4)cc12` the photoluminescence quantum yield (in Cc1ccccc1) was 0.531.
With `C(#Cc1ccccc1)c1ccccc1` the photoluminescence quantum yield (in CO) was 0.0015, the photoluminescence quantum yield (in ClC(Cl)Cl) was 0.003 and the photoluminescence quantum yield (in ClCCl) was 0.003.
In the case of `CCOC(=O)CSc1nc(C)c(CC)c(C#N)c1C#N`, the photoluminescence quantum yield (in c1ccccc1) is reported as 0.034.
For `N#Cc1ccc(-c2cn3ccc[n+]3[n-]2)cc1`, the photoluminescence quantum yield (in ClCCl) was 0.18.
With `c1ccc2ccccc2c1` the photoluminescence quantum yield (in C1CCCCC1) was 0.23 and 0.42.
In the case of `Cc1cccc2nc(-c3ccc(-c4cc(=O)cc(-c5ccccc5)o4)cc3)c(NC3CCCCC3)n12`, the photoluminescence quantum yield (in ClCCl) is reported as 0.032.
With `N#Cc1ccc2nc3[nH]c(=O)[nH]c(=O)c3nc2c1` the photoluminescence quantum yield (in ClCCCl) was 0.022.
Compound `C[P+](c1c2ccccc2cc2ccccc12)(c1c2ccccc2cc2ccccc12)c1c2ccccc2cc2ccccc12` has a photoluminescence quantum yield (in C1CCOC1) of 0.0077.
For `O=C1c2ccccc2-c2c(-c3cc(Br)ccc3O)[nH]c(=O)n21`, the photoluminescence quantum yield (in CC#N) was 0.49, the photoluminescence quantum yield (in CO) was 0.32 and the photoluminescence quantum yield (in ClCCl) was 0.61.
`C=CCOc1nnc(OCCC(F)(F)C(F)(F)C(F)(F)C(F)(F)C(F)(F)C(F)(F)C(F)(F)C(F)(F)F)nn1` gave a photoluminescence quantum yield (in ClCCl) of 0.16 and a photoluminescence quantum yield (in OCC(F)(F)F) of 0.02.
In the case of `COc1cc2c(cc1C=C(C#N)C#N)c1ccccc1n2C`, the photoluminescence quantum yield (in C1CCOC1) is reported as 0.002, the photoluminescence quantum yield (in CC#N) is reported as 0.003 and the photoluminescence quantum yield (in CCOC(C)=O) is reported as 0.004. The photoluminescence quantum yield (in CN(C)C=O) was 0.005, the photoluminescence quantum yield (in CO) was 0.003 and the photoluminescence quantum yield (in CS(C)=O) was 0.006. The photoluminescence quantum yield (in Cc1ccccc1) was 0.003, the photoluminescence quantum yield (in ClC(Cl)Cl) was 0.004 and the photoluminescence quantum yield (in ClCCl) was 0.004.
`CCCCCCCCCc1c2ccccc2cc2c1oc1c3c(c4ccccc4c12)-c1c(c2oc4cc5ccccc5cc4c2c2ccccc12)OCO3` showed a photoluminescence quantum yield (in C1CCOC1) of 0.7.
For `C[Si](C)(C)C#CC1=CC2=c3cc(C#C[Si](C)(C)C)c4nc(C(F)(F)C(F)(F)C(F)(F)F)nc5c(C#C[Si](C)(C)C)cc(c3c54)C3=CC(C#C[Si](C)(C)C)=C4N=C(C(F)(F)C(F)(F)C(F)(F)F)N=C1C4C32` (centres undefined), the photoluminescence quantum yield (in C1CCOC1) was 0.45.
`CC(C)(C)c1ccc2c(c1)c1cc(C(C)(C)C)ccc1n2-c1ccc(C#Cc2ccc(C=C(C#N)C#N)cc2)cc1` gave a photoluminescence quantum yield (in CC#N) of 0.33, a photoluminescence quantum yield (in CCCCC) of 0.5 and a photoluminescence quantum yield (in Cc1ccccc1) of 0.48. For the same compound, the photoluminescence quantum yield (in ClCCl) was 0.4.
With `CC1=C(C#Cc2ccccc2)C2=Cc3c(C#Cc4ccccc4)c(C)c(C)n3[B-](F)(F)[N+]2=C1C` the photoluminescence quantum yield (in CC#N) was 1.
For `ClC(Cl)=C1c2ccccc2C(C2(Cl)c3ccccc3C(=C(Cl)Cl)c3ccccc32)c2ccccc21` (centres undefined), the photoluminescence quantum yield (in C1CCCCC1) was 0.3, the photoluminescence quantum yield (in CCCCCO) was 0.25 and the photoluminescence quantum yield (in CCCCO) was 0.21. It also gave a photoluminescence quantum yield (in CCCO) of 0.19, a photoluminescence quantum yield (in CCO) of 0.17 and a photoluminescence quantum yield (in CO) of 0.15.
For `C=C[Si]1(C)c2ccccc2-c2cc3c(cc21)-c1ccccc1[Si]3(C)C=C` (centres undefined), the photoluminescence quantum yield (in ClCCl) was 0.5.
`C1=Nc2cccc3cccc(c23)N1` gave a photoluminescence quantum yield (in CC#N) of 0.0013, a photoluminescence quantum yield (in CO) of 0.0005 and a photoluminescence quantum yield (in CS(C)=O) of 0.0031. The photoluminescence quantum yield (in Cc1ccccc1) was 0.005.
For `Cc1ccc(C)n1-c1cccc(C#N)c1`, the photoluminescence quantum yield (in C1CCOC1) was 0.006, the photoluminescence quantum yield (in CCCCCC) was 0.004 and the photoluminescence quantum yield (in CCCCCl) was 0.004. For the same compound, the photoluminescence quantum yield (in CCOCC) was 0.006 and the photoluminescence quantum yield (in ClCCl) was 0.003.
For `C[Si]1(C)c2cc(-c3ccccc3)ccc2C=Cc2ccc(-c3ccccc3)cc21`, the photoluminescence quantum yield (in ClCCl) was 0.9.
`Cn1nc(-c2ccccc2)c2n[nH]nc2c1=O` showed a photoluminescence quantum yield (in CC#N) of 0.34, a photoluminescence quantum yield (in CCO) of 0.21 and a photoluminescence quantum yield (in Cc1ccccc1) of 0.23.
`CCCCOC(=O)c1cc(Cl)c2c3c(Cl)cc4c5c(cc(Cl)c(c6c(Oc7ccc(OC)cc7)cc(C(=O)OCCCC)c1c26)c53)C(=O)N(c1c(C(C)C)cccc1C(C)C)C4=O` showed a photoluminescence quantum yield (in Cc1ccccc1) of 0.12.
`COc1cc(/C=C/c2nc3ccccc3s2)c(OC)cc1/C=C/c1nc(C)nc(/C=C/c2cc(OC)c(/C=C/c3nc4ccccc4s3)cc2OC)n1` gave a photoluminescence quantum yield (in C1CCOC1) of 0.54, a photoluminescence quantum yield (in CC#N) of 0.03 and a photoluminescence quantum yield (in ClC(Cl)Cl) of 0.5. The photoluminescence quantum yield (in ClCCl) was 0.46.
`O=c1c2cccc3cccc(c32)c2nc3ccccc3n12` gave a photoluminescence quantum yield (in ClCCl) of 0.71.
With `C[Si](C)(C)O[Si]1(O[Si](C)(C)C)n2c3c4ccccc4c2/N=C2N=C(/N=c4/c5ccccc5/c(n41)=N/C1=NC(=N\3)/c3ccccc31)c1ccccc1\2` the photoluminescence quantum yield (in CN(C)C=O) was 0.42.
